The NIST ThermoML archive (doi:10.1021/je0501991)

Key:
[1] = refractive index (Na D-line) (dimensionless); xn = mol fraction of the nth substance listed; settings: 308.15 K, 101.33 kPa, Liquid, Standard Abbe refractometry
[2] = molar heat capacity at constant pressure; xn = mol fraction of the nth substance listed; settings: 101.33 kPa, Liquid
[3] = excess molar enthalpy (molar enthalpy of mixing); xn = mol fraction of the nth substance listed; settings: 308.15 K, 101.33 kPa, Liquid
[4] = xn = mol fraction of the nth substance listed; settings: 308.15 K, 101.33 kPa, Liquid

OCCc1ccccc1 [2-phenylethanol] + C[S+](C)[O-]
Settings | excess molar enthalpy [kJ/mol] | mass density [kg/m3] | refractive index | viscosity [mPa·s]
[1], x2 = 0.0435 | – | – | 1.5257 | –
[1], x2 = 0.1521 | – | – | 1.5224 | –
[1], x2 = 0.2758 | – | – | 1.5179 | –
[1], x2 = 0.3564 | – | – | 1.5145 | –
[1], x2 = 0.4566 | – | – | 1.5099 | –
[1], x2 = 0.5477 | – | – | 1.5052 | –
[1], x2 = 0.6247 | – | – | 1.5008 | –
[1], x2 = 0.7102 | – | – | 1.4956 | –
[1], x2 = 0.7707 | – | – | 1.4916 | –
[1], x2 = 0.8346 | – | – | 1.487 | –
[1], x2 = 0.8653 | – | – | 1.4846 | –
[1], x2 = 0.9433 | – | – | 1.4783 | –
[3], x2 = 0.0655 | -0.389 | – | – | –
[3], x2 = 0.123 | -0.628 | – | – | –
[3], x2 = 0.1738 | -0.776 | – | – | –
[3], x2 = 0.219 | -0.867 | – | – | –
[3], x2 = 0.2961 | -0.946 | – | – | –
[3], x2 = 0.3593 | -0.975 | – | – | –
[3], x2 = 0.4569 | -0.929 | – | – | –
[3], x2 = 0.5286 | -0.867 | – | – | –
[3], x2 = 0.6273 | -0.732 | – | – | –
[3], x2 = 0.7163 | -0.572 | – | – | –
[3], x2 = 0.7709 | -0.468 | – | – | –
[3], x2 = 0.8347 | -0.345 | – | – | –
[3], x2 = 0.8707 | -0.269 | – | – | –
[3], x2 = 0.9099 | -0.192 | – | – | –
[3], x2 = 0.9309 | -0.147 | – | – | –
[3], x2 = 0.9528 | -0.098 | – | – | –
[3], x2 = 0.9759 | -0.05 | – | – | –
[4], x2 = 0.0435 | – | 1011.25 | – | 7.049
[4], x2 = 0.1521 | – | 1017.45 | – | 6.133
[4], x2 = 0.2758 | – | 1024.6 | – | 5.162
[4], x2 = 0.3564 | – | 1029.49 | – | 4.611
[4], x2 = 0.4566 | – | 1035.91 | – | 3.976
[4], x2 = 0.5477 | – | 1042.18 | – | 3.446
[4], x2 = 0.6247 | – | 1047.95 | – | 3.052
[4], x2 = 0.7102 | – | 1054.95 | – | 2.652
[4], x2 = 0.7707 | – | 1060.33 | – | 2.398
[4], x2 = 0.8346 | – | 1066.5 | – | 2.157
[4], x2 = 0.8653 | – | 1069.64 | – | 2.056
[4], x2 = 0.9433 | – | 1078.31 | – | 1.806

molar heat capacity at constant pressure [J/K/mol], [2]
Settings | 298.15 K | 308.15 K | 318.15 K
x2 = 0 | 239.6 | 245.3 | 251.6
x2 = 0.08581 | 235 | 240.8 | 246.5
x2 = 0.1638 | 218.3 | 223.2 | 228.7
x2 = 0.2999 | 190.7 | 194.2 | 198.1
x2 = 0.4205 | 185 | 188.4 | 191.3
x2 = 0.519 | 185.5 | 188.2 | 190.7
x2 = 0.6293 | 169.3 | 171.3 | 173.6
x2 = 0.6713 | 171 | 172.8 | 174.9
x2 = 0.7066 | 162.6 | 164.6 | 166.5
x2 = 0.7919 | 162.7 | 164.8 | 166.8
x2 = 0.8596 | 156.2 | 157.3 | 159.1
x2 = 0.937 | 157.8 | 159.6 | 160
x2 = 0.9688 | 143.5 | 144.8 | 145.9
